Results as given in paper PMC10818824, “In Vitro and In Silico Analysis of the Bindings between Legacy and Novel Per- and Polyfluoroalkyl Substances and Human Serum Albumin” (Toxics, 2024).

The compounds below were run against T1, HSA (human serum albumin) (Homo sapiens, UniProt P02768) (assay: intrinsic fluorescence quenching, double-log fit). Settings: Tris-HCl pH 7.4, room temperature, 30 min, ex 275 nm; ethanol stocks; KA unit not given.
T1 construct: gene ALB; mature single chain of 585 residues, N-terminal Asp, C-terminal Leu; untagged; monomer
T1 sequence (P02768 25-609): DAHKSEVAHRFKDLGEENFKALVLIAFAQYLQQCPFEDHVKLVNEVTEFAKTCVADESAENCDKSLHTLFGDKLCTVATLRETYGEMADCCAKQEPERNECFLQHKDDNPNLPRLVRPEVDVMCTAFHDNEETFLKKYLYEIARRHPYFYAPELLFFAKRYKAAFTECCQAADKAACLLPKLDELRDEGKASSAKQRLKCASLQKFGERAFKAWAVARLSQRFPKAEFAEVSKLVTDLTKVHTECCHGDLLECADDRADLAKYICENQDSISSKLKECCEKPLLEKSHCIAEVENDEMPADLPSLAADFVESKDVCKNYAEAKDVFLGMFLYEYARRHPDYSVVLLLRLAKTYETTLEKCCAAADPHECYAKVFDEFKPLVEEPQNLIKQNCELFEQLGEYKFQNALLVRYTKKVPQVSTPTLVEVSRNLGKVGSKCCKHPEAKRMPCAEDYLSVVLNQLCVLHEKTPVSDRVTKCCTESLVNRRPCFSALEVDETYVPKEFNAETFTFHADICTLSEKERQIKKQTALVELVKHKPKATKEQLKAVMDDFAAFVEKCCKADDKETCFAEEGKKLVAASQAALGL
Format: binding
Set-up: unit not given here
Source text: intrinsic fluorescence quenching, double-log fit on HSA (human serum albumin)
`O=S(=O)(O)C(F)(F)C(F)(F)OC(F)(F)C(F)(F)C(F)(F)C(F)(F)C(F)(F)C(F)(F)Cl` [9Cl-PF3ONS, 9–chlorohexadecafluoro–3–oxanone–1–sulfonic acid] was tested, and the “Binding Constant KA” value was 117.112.
`O=S(=O)(O)C(F)(F)C(F)(F)OC(F)(F)C(F)(F)C(F)(F)C(F)(F)C(F)(F)C(F)(F)C(F)(F)C(F)(F)Cl` [11Cl-PF3OUdS, 11–chloroeicosafluoro–3–oxaundecane–1–sulfonic acid] was tested, and the “Binding Constant KA” value was 127.6145.
With `O=C(O)C(F)(F)C(F)OC(F)(F)C(F)(F)C(F)(F)OC(F)(F)F` (centres unmarked) [NaDONA, sodium dodecafluoro-3H–4,8–dioxanonanoate] the “Binding Constant KA” value was 93.0894.
With `O=C(O)C(F)(F)C(F)(F)C(F)(F)F` [PFBA] the “Binding Constant KA” value was 20.3657.
For `O=S(=O)(O)C(F)(F)C(F)(F)C(F)(F)C(F)(F)F` [PFBS], the “Binding Constant KA” value was 116.4930.
In the case of `O=S(=O)(O)C(F)(F)C(F)(F)C(F)(F)C(F)(F)C(F)(F)C(F)(F)F` [PFHxS], the “Binding Constant KA” value is reported as 157.9429.
`O=S(=O)(O)C(F)(F)C(F)(F)C(F)(F)C(F)(F)C(F)(F)C(F)(F)C(F)(F)C(F)(F)F` [PFOS] was tested, and the “Binding Constant KA” value was 394.639.
For `O=S(=O)(O)C(F)(F)C(F)(F)C(F)(F)F` [PFPrS], the “Binding Constant KA” value was 79.4511.
